Assay results from publication PMC8845381 (BMC Microbiology, 2022).
Converted amounts (≈) assume the structure as drawn. “And” between values parts separate entries of the source, which are not always exact repeats. Equal entries are not always repeated. Where two headings read alike, the source gives them in different places. Marks after values point to notes of the source that are not given here. One block for each compound: values may come before it.

Columns and labels:
human blood = assay type: cell-based; settings: 30 min at 37 °C
Procedure: In vitro hemolytic activity was done by spectrophotometric method. In this study, the fresh human blood samples obtained from returned unused blood bags in the blood bank (Iranian Blood Transfusion Organization) were used. […] The mixture was incubated for 30 min at 37 °C and then centrifuged at 1500 rpm for 10 min. The free hemoglobin in the supernatant was analyzed by UV–Vis spectrophotometer at 540 nm. The PBS and distilled water (DW) were used as minimal and maximal hemolytic controls.

[1] = tested on: L. major amastigotes in J774.A1 macrophages; assay: Parasite load in macrophage (anti-amastigote activity); assay type: cell-based, Leishmania major; settings: for Number of amastigotes: mean per macrophage
Procedure: For the assessment of the parasite load, 2 × 10^5 of J774.A1 macrophages cells were cultured in a 24-well microtiter plate containing a 13 mm-diameter coverslip per well, and supplemented RPMI medium supplemented with 10% FCS and 100 U/ml penicillin and 100 μg/mL streptomycin and incubated at 37 °C in CO2 5% for 24 h. Promastigotes of L. major at the stationary phase were seeded into each well (1:10) and incubated for 24 h and the non-internalized parasites were removed by aspirating the supernatant. […] The number of infected macrophages and the number of amastigotes per macrophage were determined by counting the number of parasites in 100 macrophages in a neubauer chamber.

L929 cell line = assay: Cytotoxicity assay (MTT); assay type: cell-based; settings: for Cytotoxicity assay Percent (%): L929, 24 h
Procedure: L929 cell line was seeded into 96-well microtiter plates (Nunc, Roskilde, Denmark) in DMEM (100 μL) supplemented with 10% FBS and 1% penicillin–streptomycin solution. Cells then were incubated at 37 °C in a humidity of 95% and 5% CO2 for 24 h. […] After 24 h of incubation time, 10 μL of MTT solution was added to each well. After 3 h of incubation at 37 °C, the supernatant was removed and 100 μL of DMSO was added. Finally, the absorbance at 570 nm was measured by a microtiter plate reader (BioTek ELX800, Winooski, VT, USA) and the viability was calculated by the below formula [21]: Viability%=ODTest/ODControl×100

[2] = Characterization by dynamic light scattering (size, PDI, zeta potential); assay type: physicochemical; settings: DLS
Procedure: The homogenization followed by the probe ultra-sonication method was performed for preparing the nanoparticles. […] Then, the hot lipid phase was dispersed in the 1/3 aqueous solution containing 500 mg of hydrophilic surfactant (Tween 80), heated at the same temperature, homogenized by high-shear homogenizer at 13,000 rpm for 7 min (D-91126 Schwabach, Heidolph, Germany), and then sonicated by a probe sonicator (Bandelinsonopuls, 3100, Berlin, Germany) at power levels of 3.5 W for 5 min to form a coarse pre-emulsion. The mixture was then dispersed into 2/3 of an ice-cold surfactant solution preserved in an ice bath. The final mixture was sonicated again at power levels of 0.6 W for 10 min while dipped in the ice bath. This cooling phase encouraged the formation of lipid nanoparticles.

L. major promastigotes [3] = assay: In vitro assay: live and dead promastigotes counted after eosin staining; assay type: cell-based, Leishmania major (Iranian strain MRHO/IR/75/ER); settings: for effectiveness (mortality rate of promastigotes) compared with Amphotericin B: P < 0.05
Procedure: L. major promastigotes, Iranian strain MRHO/IR/75/ER, were provided by the department of parasitology, Tehran University of Medical Sciences, Tehran, Iran and were cultivated in RPMI-1640 medium supplemented with 10% FBS and penicillin–streptomycin solution at 24 °C with frequent passages every three days.
The experiments were done separately for 12, 24, 48, and 72 h in a 96-well microtiter plate. At first, 100 μL RPMI-1640 medium containing 10^5 promastigotes (at log phase) was added to each well. […] Amphotericin B (20 mg/mL) as a positive control was considered in three wells, in a concentration of 12 μM. In another row, 100 µL of medium containing parasites with phosphate buffered saline (PBS) without the drug was added as the negative controls. The plate was incubated at 24 °C for 12, 24, 48, and 72 h.

Candida albicans = settings: cited from earlier work
L. major = settings: in vitro; cited from earlier work
L. major promastigotes [4] = assay: Apoptosis assay (Annexin V-FITC/PI flow cytometry); assay type: cell-based; settings: Leishmania major, 24 h, read-out: viability rates of cells (flow cytometry)
Procedure: They were incubated at 24 °C for 24 h. Then cells were washed twice with PBS and 1 × 10^5 cells were re-suspended in 100 μL binding buffer and incubated with 5 μL of Annexin V-FITC and propidium iodide (PI) as a counterstain for 15 min at room temperature in darkness, according to the manufacturer's instructions (BD Biosciences, San Diego, CA, USA). Finally, the percent of apoptotic and necrotic cells was evaluated by flow cytometry (Becton Dickinson) and data were analyzed using Flowjo software (version 7).

[5] = tested on: L. major intracellular amastigotes; settings: 10, 50, and 100 µg/mL; cited from earlier work
L. amazonensis = settings: in vitro; cited from earlier work
Leishmania major = assay: In vivo assay: lesion size in infected BALB/c mice, topical treatment; settings: after 28 days
Procedure: This study was performed in accordance with ARRIVE guidelines (https://arriveguidelines.org). Female BALB/c mice (6–7 weeks old) purchased from Razi Rad Industries were used for experimentation and kept in standard boxes under controlled light and temperature conditions. Overall, 1.6 × 10^6 promastigotes, in the stationary phase, were injected subcutaneously in the base of the tail of mice. The mice were divided into 10 groups and five mice were allocated in each group. […] After three weeks, treatment was started when local lesions were apparent. […] Topical treatment was used on each mouse every 28 continuous days. The diameter of lesions was measured weekly before and after treatment by dial micrometer (Starrett Dial indicator, model 25A, USA) and compared with that of untreated lesions. The ulcer size was determined according to the following formula (a: Length and b: width): Lesionsize=a+b/2

[6] = tested on: nitric oxide (NO) production by infected murine peritoneal macrophages; assay: Indirect measurement of nitric oxide production (Griess reaction); assay type: cell-based
Procedure: NO levels were evaluated using Griess reaction and compared to the untreated macrophages. In a 96-well microtiter plate, 2 × 10^5 murine peritoneal macrophages were cultured at 37 °C in 5% CO2 for 4 h to allow cell adhesion. 100 µL of new medium containing promastigotes in stationary phase (10 promastigotes per macrophage) was added. […] After the incubation times, the level of NO was analyzed using cell culture supernatant by an ELISA plate reader at 550 nm.

[7] = tested on: L. amazonensis promastigotes; design: method as in PMID 26517558; settings: in vitro; cited from earlier work
[8] = 20 µg/mL, 0 h (Before treatment)
[9] = 50 µg/mL, 0 h (Before treatment)
[10] = 100 µg/mL, 0 h (Before treatment)
[11] = 200 µg/mL, 0 h (Before treatment)
[12] = 400 µg/mL, 0 h (Before treatment)

SMILES: C[C@@H]1[C@H](O)[C@@H](C)/C=C/C=C/C=C/C=C/C=C/C=C/C=C/[C@H](O[C@@H]2O[C@H](C)[C@@H](O)[C@H](N)[C@@H]2O)C[C@@H]2O[C@](O)(C[C@@H](O)C[C@@H](O)[C@H](O)CC[C@@H](O)C[C@@H](O)CC(=O)O[C@H]1C)C[C@H](O)[C@H]2C(=O)O [Amphotericin B, reference compound]
Hemolytic assay Percent (%) (human blood; concentration not given): 21.6% and 21.6 ± 5.3% | MQ infectivity (%) [1, 8]: 73.4% | Number of amastigotes [1, 8]: 15.7 | MQ infectivity (%) ([1]; 20 µg/mL, 24 h): 34.5^* % | Number of amastigotes ([1]; 20 µg/mL, 24 h): 4.3^* | MQ infectivity (%) ([1]; 20 µg/mL, 48 h): 42.7^* % | Number of amastigotes ([1]; 20 µg/mL, 48 h): 0.4^** | Cytotoxicity assay Percent (%) (L929 cell line; concentration not given): 19.5 ± 0.6%

average size [2]: 432.7 ± 26 nm | IC50 (L. major promastigotes [3]; Leishmania major, promastigotes of L. major after 12 h): 16.2 µg/mL (≈ 71.1 µM)
SMILES: Oc1ccc(/C=C/c2cc(O)cc(O)c2)cc1 [Resveratrol, 3,5,4' -trihydroxy-trans-stilbene]
promastigotes eliminated (L. major promastigotes [3]; 100 µg/mL, 48 h, 'In this study' (sentence follows description of ref 17)): 100% | effectiveness (mortality rate of promastigotes) compared with Amphotericin B (L. major promastigotes [3]; after 12 h, 50, 100, 200, and 400 µg/mL): significantly more effective than Amphotericin B | effectiveness (mortality rate of promastigotes) compared with Amphotericin B (L. major promastigotes [3]; after 24 h, all concentrations): significantly more effective than Amphotericin B | anti-leishmanial activity compared with positive control (Amphotericin B) (L. major promastigotes [3]; after 48 h, resveratrol 50-400 µg/mL, RNE 100-400 µg/mL, not significant (P > 0.05)): better anti-leishmanial activity than positive control | IC50 (Candida albicans): 10 to 20 µg/mL | IC50 (L. major): 65.5 µM | viability at 200 µg/mL (L. major promastigotes [4]; 200 µg/mL): 87.9% | viability at 400 µg/mL (L. major promastigotes [4]; 400 µg/mL): 71.4% | Hemolytic assay Percent (%) (human blood; 100 µg/mL): 17.5 ± 2.4% | Hemolytic assay Percent (%) (human blood; 200 µg/mL): 19.6 ± 3.7% | Hemolytic assay Percent (%) (human blood; 400 µg/mL (highest concentration)): 25.2 ± 5.3% | effect on intracellular amastigote [5]: resistant | MQ infectivity (%) [1, 9]: 76.4% | Number of amastigotes [1, 9]: 17.6 | MQ infectivity (%) ([1]; 50 µg/mL, 24 h): 68.4^* % | Number of amastigotes ([1]; 50 µg/mL, 24 h): 12.5 | MQ infectivity (%) ([1]; 50 µg/mL, 48 h): 55.3% | Number of amastigotes ([1]; 50 µg/mL, 48 h): 9.8^* | MQ infectivity (%) [1, 10]: 81.0% | Number of amastigotes [1, 10]: 18.3 | MQ infectivity (%) ([1]; 100 µg/mL, 24 h): 56.2^* % | Number of amastigotes ([1]; 100 µg/mL, 24 h): 12.1 | MQ infectivity (%) ([1]; 100 µg/mL, 48 h): 41.9^* % | Number of amastigotes ([1]; 100 µg/mL, 48 h): 9.5^* | MQ infectivity (%) [1, 11]: 78.3% | Number of amastigotes [1, 11]: 18.0 | MQ infectivity (%) ([1]; 200 µg/mL, 24 h): 42.6^* % | Number of amastigotes ([1]; 200 µg/mL, 24 h): 6.7^* | MQ infectivity (%) ([1]; 200 µg/mL, 48 h): 35.5^* % | Number of amastigotes ([1]; 200 µg/mL, 48 h): 2.4^* | MQ infectivity (%) [1, 12]: 79.6% | Number of amastigotes [1, 12]: 16.2 | MQ infectivity (%) ([1]; 400 µg/mL, 24 h): 31.4^* % | Number of amastigotes ([1]; 400 µg/mL, 24 h): 3.3^* | MQ infectivity (%) ([1]; 400 µg/mL, 48 h): 25.8^* % | Number of amastigotes ([1]; 400 µg/mL, 48 h): 0.5^** | cytotoxicity against the L929 cell line (in words) (L929 cell line): no cytotoxicity | Cytotoxicity assay Percent (%) (L929 cell line; 100 µg/mL): 8.4 ± 1.6% | Cytotoxicity assay Percent (%) (L929 cell line; 200 µg/mL): 14.8 ± 3.0% | Cytotoxicity assay Percent (%) (L929 cell line; 400 µg/mL): 18.7 ± 4.6% | IC50 (L. amazonensis): 27 µM | mean lesion size (Leishmania major; 15 mg/kg BW, topical, PBS control 7.5 and 7.2 mm): 0.0 mm | anti-leishmanial activity (lesion size) compared with Amphotericin B (Leishmania major; all concentrations, not significant (P > 0.05)): better anti-leishmanial activity | NO production by macrophages compared with Amphotericin B ([6]; resveratrol 50 and 100 µg/mL, RNE 50, 100, 200, and 400 µg/mL, P < 0.05): decreased the NO production even more than Amphotericin B | production of NO compared with the control group ([6]; resveratrol ≥ 200 µg/mL, 24 h, control PBS 7.23 μM, DMSO 6.73 μM): decreased the production of NO

SMILES: Oc1cc(O)cc(/C=C/c2ccc(O)cc2O)c1 [oxyresveratrol]
IC50 [7]: 65 µg/mL (≈ 266 µM)
